Data taken from US20240216401A1, “COMBINATION THERAPY BY USING AKR1C3-ACTIVATED COMPOUND WITH IMMUNE CHECKPOINT INHIBITOR” (OBI Pharma, Inc., priority 2021, published 2024).
“And” between values parts separate entries of the source, which are not always exact repeats. Equal entries are not always repeated.

Experiments:
[1] = system: Calreticulin cells in tumor-infiltrating lymphocytes; experiment: Example 2: flow cytometry, percentage of Calreticulin cells in TILs; assay type: in vivo, Mus musculus; conditions: individual mice and group Mean; for CD45^− live cells (CD45^−ViaKrome405^weak) Cell count / Calreticulin cells (CD45^− Calreticulin^+) Cell count / Total CD45^− cells (CD45^−) Cell count: Cell count = Total cell × Total % × 10; for CD45^− live cells (CD45^−ViaKrome405^weak) CTL Gated % / CD45^− live cells (CD45^−ViaKrome405^weak) Total % / Calreticulin cells (CD45^− Calreticulin^+) CTL Gated % / Calreticulin cells (CD45^− Calreticulin^+) Total % / Total CD45^− cells (CD45^−) CD45^+ Gated % / Total CD45^− cells (CD45^−) Total %: TILs from tumor
Experimental: (§1) Mice were sacrificed by CO2 euthanasia at the end of the study duration, and the connective tissue around tumor was resected. The tumor samples were then weighed and cut equally into three sections if the tumor weight over 400 mg. The tumor tissue was prepared for the isolation of tumor-infiltrating lymphocytes (TILs). The rest of one section was fixed in 10% formaldehyde and embedded in paraffin; the other was stored at a temperature below −70° C.
(§2) The tumor samples were dissected into smaller fragments using scalpels and then digested with a cocktail of collagenase, DNase I, and Hyaluronidase (Collagenase #C5138, DNase I #D5025, Hyaluronidase #H6254, SigmaAldrich) for at least 2 hours.
(§3) Cells were stained with the fluorescently conjugated surface antibodies and incubated for 30 minutes at 4° C., and then resuspended in staining buffer for flow cytometric analysis. Flow cytometry was done using a Navios EX Flow Cytometer (Beckman Coulter). Data were analyzed using the Kaluza Analysis Software (Beckman Coulter).

[2] = system: PD-L1^+ cells in tumor-infiltrating lymphocytes; experiment: Example 2: flow cytometry, percentage of PD-L1^+ cells in TILs; assay type: in vivo, Mus musculus
Experimental: as §1, §2, §3

[3] = G2: OBI-3424 0.3 mg/kg, 0.3 mg/kg
[4] = G2: OBI-3424 0.3 mg/kg, 0.3 mg/kg, group mean
[5] = G3: OBI-3424 1 mg/kg, 1 mg/kg, group mean
[6] = G2, OBI-3424 0.3 mg/kg, group Mean
[7] = G2, OBI-3424 0.3 mg/kg, individual animal, 0.3 mg/kg
[8] = G3, OBI-3424 1 mg/kg, group Mean

Structure (SMILES): C[C@H](OP(=O)(N1CC1)N1CC1)c1ccc([N+](=O)[O-])c(Oc2cccc(C(=O)N(C)C)c2)c1 [OBI-3424, (S)-1-(3-(3-N,N-dimethylaminocarbonyl)phenoxyl-4-mtrophenyl)-1-ethyl-N,N′-bis(ethylene)phosphoramidate]
- CD45^− live cells (CD45^−ViaKrome405^weak) Cell count [1, 3]: 39.37 ×10^5 and 25.28 ×10^5 and 83.81 ×10^5 and 1.35 ×10^5 and 29.90 ×10^5 and 5.87 ×10^5
- Calreticulin cells (CD45^− Calreticulin^+) Cell count [1, 3]: 5.54 ×10^5 and 1.27 ×10^5 and 10.26 ×10^5 and 0.06 ×10^5 and 1.11 ×10^5 and 0.19 ×10^5
- Total CD45^− cells (CD45^−) Cell count [1, 3]: 70.58 ×10^5 and 45.89 ×10^5 and 130.41 ×10^5 and 2.18 ×10^5 and 65.25 ×10^5 and 10.35 ×10^5
- CD45^− live cells (CD45^−ViaKrome405^weak) Cell count [1, 4]: 30.93 ×10^5
- Calreticulin cells (CD45^− Calreticulin^+) Cell count [1, 4]: 3.07 ×10^5
- Total CD45^− cells (CD45^−) Cell count [1, 4]: 54.11 ×10^5
- CD45^− live cells (CD45^−ViaKrome405^weak) CTL Gated % [1, 3]: 55.78% and 55.07% and 64.29% and 61.79% and 45.83% and 56.69%
- CD45^− live cells (CD45^−ViaKrome405^weak) Total % [1, 3]: 20.24% and 12.36% and 15.52% and 6.30% and 12.13% and 8.10%
- Calreticulin cells (CD45^− Calreticulin^+) CTL Gated % [1, 3]: 14.09% and 5.02% and 12.21% and 4.51% and 3.69% and 3.21%
- Calreticulin cells (CD45^− Calreticulin^+) Total % [1, 3]: 2.85% and 0.62% and 1.90% and 0.28% and 0.45% and 0.26%
- Total CD45^− cells (CD45^−) CD45^+ Gated % [1, 3]: 50.59% and 29.66% and 28.87% and 12.41% and 31.01% and 21.40%
- Total CD45^− cells (CD45^−) Total % [1, 3]: 36.29% and 22.44% and 24.15% and 10.20% and 26.47% and 14.28%
- CD45^− live cells (CD45^−ViaKrome405^weak) CTL Gated % [1, 4]: 56.58%
- CD45^− live cells (CD45^−ViaKrome405^weak) Total % [1, 4]: 12.44%
- Calreticulin cells (CD45^− Calreticulin^+) CTL Gated % [1, 4]: 7.12%
- Calreticulin cells (CD45^− Calreticulin^+) Total % [1, 4]: 1.06%
- Total CD45^− cells (CD45^−) CD45^+ Gated % [1, 4]: 28.99%
- Total CD45^− cells (CD45^−) Total % [1, 4]: 22.31%
- CD45^− live cells (CD45^−ViaKrome405^weak) Cell count ([1]; G3: OBI-3424 1 mg/kg, 1 mg/kg): 1.72 ×10^5 and 9.67 ×10^5 and 7.88 ×10^5 and 9.07 ×10^5 and 5.22 ×10^5 and 6.72 ×10^5
- Calreticulin cells (CD45^− Calreticulin^+) Cell count ([1]; G3: OBI-3424 1 mg/kg, 1 mg/kg): 0.05 ×10^5 and 0.25 ×10^5 (2×) and 0.88 ×10^5 and 0.19 ×10^5 and 0.12 ×10^5
- Total CD45^− cells (CD45^−) Cell count ([1]; G3: OBI-3424 1 mg/kg, 1 mg/kg): 2.45 ×10^5 and 15.22 ×10^5 and 11.73 ×10^5 and 11.65 ×10^5 and 8.38 ×10^5 and 8.94 ×10^5
- CD45^− live cells (CD45^−ViaKrome405^weak) Cell count [1, 5]: 6.71 ×10^5
- Calreticulin cells (CD45^− Calreticulin^+) Cell count [1, 5]: 0.29 ×10^5
- Total CD45^− cells (CD45^−) Cell count [1, 5]: 9.73 ×10^5
- CD45^− live cells (CD45^−ViaKrome405^weak) CTL Gated % ([1]; G3: OBI-3424 1 mg/kg, 1 mg/kg): 70.28% and 63.52% and 67.13% and 77.84% and 62.30% and 75.12%
- CD45^− live cells (CD45^−ViaKrome405^weak) Total % ([1]; G3: OBI-3424 1 mg/kg, 1 mg/kg): 5.94% and 7.66% and 11.16% and 9.18% and 7.02% and 8.30%
- Calreticulin cells (CD45^− Calreticulin^+) CTL Gated % ([1]; G3: OBI-3424 1 mg/kg, 1 mg/kg): 2.90% and 2.61% and 11.18% and 2.75% and 3.65% and 1.83%
- Calreticulin cells (CD45^− Calreticulin^+) Total % ([1]; G3: OBI-3424 1 mg/kg, 1 mg/kg): 0.17% and 0.20% and 1.25% and 0.25% and 0.26% and 0.15%
- Total CD45^− cells (CD45^−) CD45^+ Gated % ([1]; G3: OBI-3424 1 mg/kg, 1 mg/kg): 9.67% and 13.99% and 19.95% and 13.15% and 12.84% and 12.22%
- Total CD45^− cells (CD45^−) Total % ([1]; G3: OBI-3424 1 mg/kg, 1 mg/kg): 8.45% and 12.06% and 16.62% and 11.79% and 11.27% and 11.04%
- CD45^− live cells (CD45^−ViaKrome405^weak) CTL Gated % [1, 5]: 69.37%
- CD45^− live cells (CD45^−ViaKrome405^weak) Total % [1, 5]: 8.21%
- Calreticulin cells (CD45^− Calreticulin^+) CTL Gated % [1, 5]: 4.15%
- Calreticulin cells (CD45^− Calreticulin^+) Total % [1, 5]: 0.38%
- Total CD45^− cells (CD45^−) CD45^+ Gated % [1, 5]: 13.64%
- Total CD45^− cells (CD45^−) Total % [1, 5]: 11.87%
- PD-L1^+ cells (CD45^− PD-L1^+), CD45^− Gated % [2, 6]: 9.15%
- PD-L1^+ cells (CD45^− PD-L1^+), Cell count [2, 6]: 4.91 ×10^5
- PD-L1^+ cells (CD45^− PD-L1^+), Total % [2, 6]: 1.95%
- Total PD-L1^+ cells (PD-L1^+), Cell count [2, 6]: 9.60 ×10^5
- Total PD-L1^+ cells (PD-L1^+), Total % [2, 6]: 3.79%
- Total PD-L1^+ cells (PD-L1^+), Total cells Gated % [2, 6]: 5.18%
- PD-L1^+ cells (CD45^− PD-L1^+), CD45^− Gated % [2, 7]: 15.51% and 5.86% and 9.64% and 4.13% and 12.53% and 7.23%
- PD-L1^+ cells (CD45^− PD-L1^+), Cell count [2, 7]: 9.41 ×10^5 and 2.07 ×10^5 and 10.69 ×10^5 and 0.07 ×10^5 and 6.63 ×10^5 and 0.61 ×10^5
- PD-L1^+ cells (CD45^− PD-L1^+), Total % [2, 7]: 4.84% and 1.01% and 1.98% and 0.35% and 2.69% and 0.84%
- Total PD-L1^+ cells (PD-L1^+), Cell count [2, 7]: 14.43 ×10^5 and 6.01 ×10^5 and 24.62 ×10^5 and 0.29 ×10^5 and 10.67 ×10^5 and 1.56 ×10^5
- Total PD-L1^+ cells (PD-L1^+), Total % [2, 7]: 7.42% and 2.94% and 4.56% and 1.34% and 4.33% and 2.15%
- Total PD-L1^+ cells (PD-L1^+), Total cells Gated % [2, 7]: 11.84% and 3.97% and 5.50% and 1.44% and 5.16% and 3.16%
- PD-L1^+ cells (CD45^− PD-L1^+), CD45^− Gated % [2, 8]: 4.40%
- PD-L1^+ cells (CD45^− PD-L1^+), Cell count [2, 8]: 0.38 ×10^5
- PD-L1^+ cells (CD45^− PD-L1^+), Total % [2, 8]: 0.48%
- Total PD-L1^+ cells (PD-L1^+), Cell count [2, 8]: 1.61 ×10^5
